Source: patent US10865207B2, “Compounds for imaging Tau protein aggregates” (AC IMMUNE S.A., priority 2016, dated 2020)

Tests used:
[1] = PK studies in healthy mice (dynamic PET); format: in vivo, NMRI mice; design: Good brain uptake (grade) / Mouse PK Uptake (grade): key: −: poor; ∘: moderate; +: good; ++: very good; +++: excellent; conditions: for Mouse PK De-fluorination (grade) / Mouse PK Uptake (grade) / Mouse PK Washout (grade): Table 2; for bone uptake in shoulder joint at 60 min (de-fluorination) / peak uptake in brain (tracer uptake in healthy mice after iv injection) / ratio of uptake peak/30 min (washout from healthy brain): healthy mice; for bone uptake in shoulder joint at 60 min (de-fluorination): after iv injection; for peak uptake in brain (tracer uptake in healthy mice after iv injection): PET; for ratio of uptake peak/30 min (washout from healthy brain): Table 1: ratio of uptake at 2 min and 30 min; for Good brain uptake (grade): key: −: poor; ∘: moderate; +: good; ++: very good; +++: excellent; for Low retention in healthy brain (grade): key: −: poor; ∘: moderate; +: good; ++: very good; +++: excellent; for Mouse PK De-fluorination (grade): key: −: poor; ∘: moderate; +: good; ++: very good; +++: excellent
Experimental: NMRI mice (weight range 25-35 g) were injected intravenously with the ^18F-labeled compounds. Up to 150 μL of 1×PBS solution with 10%-15% EtOH or dilution medium ([…]) containing the ^18F-labeled compound (2-10 MBq) were injected. Anesthesia with isoflurane was induced before injection of the tracer and maintained during the image acquisition period. PET scans were performed using a SIEMENS INVEON small animal PET/CT scanner (Siemens, Knoxville, Tenn.). PET acquisition was started immediately before the radioactive dose was injected into the animal through the tail vein. Images were generated as dynamic scans for 60 minutes.
The peak uptake in the brain was set to 100% and washout curves were generated to evaluate the clearance of the activity from the normal brain (FIG. 2).

MAO A = biological target: T1, MAO A (Mus musculus, UniProt Q64133); assay: MAO A 18F-FEH competition assay in mouse brain homogenate; format: binding; conditions: for low MAO A binding (grade): Table 2, IC50 in mouse brain homogenate
T1 construct: from tissue; host or cells: whole mouse brain homogenate
T1 sequence (Q64133 1-526): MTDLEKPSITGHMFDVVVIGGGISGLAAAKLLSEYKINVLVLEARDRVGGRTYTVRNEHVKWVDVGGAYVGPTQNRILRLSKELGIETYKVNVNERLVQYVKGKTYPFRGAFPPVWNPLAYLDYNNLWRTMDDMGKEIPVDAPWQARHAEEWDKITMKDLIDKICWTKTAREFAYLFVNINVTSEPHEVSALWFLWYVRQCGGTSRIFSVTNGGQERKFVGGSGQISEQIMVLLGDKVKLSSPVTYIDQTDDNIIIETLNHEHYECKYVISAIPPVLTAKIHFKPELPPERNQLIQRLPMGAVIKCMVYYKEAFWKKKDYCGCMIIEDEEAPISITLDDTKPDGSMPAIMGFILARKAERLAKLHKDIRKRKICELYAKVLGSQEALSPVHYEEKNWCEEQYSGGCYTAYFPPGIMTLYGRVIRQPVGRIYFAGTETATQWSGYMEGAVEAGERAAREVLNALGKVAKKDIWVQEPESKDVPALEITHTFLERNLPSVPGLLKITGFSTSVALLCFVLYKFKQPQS

Tau = Tau (Homo sapiens, UniProt P10636); assay: Competition binding to Tau in human AD brain homogenate with 18F-labeled Tau binder; conditions: for binding affinity for Tau (in words): IC50 determined in AD brain homogenate; for high Tau binding (grade): Table 2, fluorine-19 derivatives; for high Tau binding (grade): key: −: poor; ∘: moderate; +: good; ++: very good; +++: excellent
Experimental: 20 μg of human Alzheimer disease brain homogenate was incubated with a dilution series of each test compound (1000 to 0.06 nM) in the presence of 800 Bq of ^18F-labeled Tau binder. The samples were shaken at 110 rpm for 45 min at 37° C. Samples were then filtered through GF/B 96 well filter plates and washed twice with 300 μL assay buffer (PBS containing 0.1% BSA and 2% DMSO). Thereafter, filter plates were sealed and a Fuji Film Imaging Plate (BAS-SR2025) was placed on top. The imaging plate was analyzed after overnight exposition using a Fuji Film BAS-5000. Non-specific signal was determined with samples containing ^18F-labeled Tau-reference binder in the presence of assay buffer without brain substrate and competitor. […] The unblocked ^18F-labeled Tau-binder signal was defined as total binding. IC50 values were calculated by Prism V6 (GraphPad) setting total binding to 100%.

Sequence of Tau (P10636 623-708 limits assumed): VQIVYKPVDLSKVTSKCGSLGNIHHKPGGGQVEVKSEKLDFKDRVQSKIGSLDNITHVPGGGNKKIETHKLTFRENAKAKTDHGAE

| Mouse PK De-fluorination (grade) [1] | Mouse PK Uptake (grade) [1] | bone uptake in shoulder joint at 60 min (de-fluorination) [1] | peak uptake in brain (tracer uptake in healthy mice after iv injection) [1] | ratio of uptake peak/30 min (washout from healthy brain) [1] | selectivity over MAO A (in words) (MAO A) | low MAO A binding (grade) (MAO A) | binding affinity for Tau (in words) (Tau) | high Tau binding (grade) (Tau) | Good brain uptake (grade) ([1]; Table 1) | Low retention in healthy brain (grade) ([1]; Table 1) | Mouse PK Washout (grade) [1] | Fast washout from healthy brain (grade) ([1]; Table 1) | Low or minor de-fluorination (grade) ([1]; Table 1) | De-fluorination in mice (in words) ([1]; mouse, in vivo) | Compound |
| --- | --- | --- | --- | --- | --- | --- | --- | --- | --- | --- | --- | --- | --- | --- | --- |
|  |  |  |  |  |  |  |  |  | ++ | − |  |  |  |  | [18F]c1ccc(-c2ccc3c(c2)[nH]c2ccncc23)cn1 [Compound ^18F-1] |
| − | ++ | (6.2% ID/g) | (5.7% ID/g) | (10.9) | Inferior | + |  | +++ |  |  | ++ |  |  |  | Fc1ccc(-c2ccc3c(n2)[nH]c2ccncc23)cn1 [Compound F-2] |
| + | ++ | (2.9% ID/g) | (5.3% ID/g) | (9.6) |  | +++ | inferior | ++ |  |  | + |  |  |  | Fc1cncc(-c2ccc3c(n2)[nH]c2ccncc23)c1 [Comparative Example 5 (F-5)] |
|  |  |  |  |  |  |  |  |  | ++ |  |  | + | − | De-fluorination in mice was found | [18F]c1ccc(-c2ccc3c(n2)[nH]c2ccncc23)cn1 [Compound ^18F-2] |
|  |  |  |  |  |  | +++ | inferior | ++ |  |  |  |  |  |  | Fc1ccnc(-c2ccc3c(n2)[nH]c2ccncc23)c1 [Comparative Example 9 (F-9)] |

More lines, now with the values behind:

| Compound | Mouse PK De-fluorination (grade) [1] | Mouse PK Uptake (grade) [1] | bone uptake in shoulder joint at 60 min (de-fluorination) [1] | peak uptake in brain (tracer uptake in healthy mice after iv injection) [1] | ratio of uptake peak/30 min (washout from healthy brain) [1] | selectivity over MAO A (in words) (MAO A) | low MAO A binding (grade) (MAO A) | binding affinity for Tau (in words) (Tau) | high Tau binding (grade) (Tau) | Good brain uptake (grade) ([1]; Table 1) | Low retention in healthy brain (grade) ([1]; Table 1) | Mouse PK Washout (grade) [1] | Fast washout from healthy brain (grade) ([1]; Table 1) | Low or minor de-fluorination (grade) ([1]; Table 1) | De-fluorination in mice (in words) ([1]; mouse, in vivo) |
| --- | --- | --- | --- | --- | --- | --- | --- | --- | --- | --- | --- | --- | --- | --- | --- |
| Fc1cccc(-c2ccc3c(n2)[nH]c2ccncc23)n1 [Comparative Example 7 (F-7)] | − | +++ | (11.1% ID/g) | (8.5% ID/g) | (7.0) | Inferior | + | inferior | ++ |  |  |  |  |  |  |
| Fc1ccc(-c2ccc3c(n2)[nH]c2ccncc23)nc1 [Comparative Example 8 (F-8)] |  |  |  |  |  | Inferior |  |  | +++ |  |  |  |  |  |  |
| Fc1cccnc1-c1ccc2c(n1)[nH]c1ccncc12 [Comparative Example 10 (F-10)] | − |  | (6.2% ID/g) | (2.1% ID/g) | (3.6) |  | +++ | poor | − |  |  | − |  |  |  |
| Fc1ccncc1-c1ccc2c(n1)[nH]c1ccncc12 [Comparative Example 6 (F-6)] |  | +++ | (4.8% ID/g) | (8.2% ID/g) | (14.5) |  | +++ | poor | − |  |  | ++ |  |  |  |
